In patent US20160038468A1 (priority 2013, published 2016):
Like-named read-outs stand apart in the source and are kept apart here.

Key:
Format in all cases: cell-based
[1] = system: Prevotella timonensis; assay: Agar dilution MIC (CLSI), Prevotella timonensis vaginal isolates; settings: for MIC: read-out: Minimal Inhibitory Concentration (MIC); for Number of strains with indicated MIC: 33 samples
[2] = system: Peptoniphilus lacrimalis; assay: Agar dilution MIC (CLSI), Peptoniphilus lacrimalis vaginal isolates; settings: for Number of strains with indicated MIC: 20 samples; for MIC: read-out: Minimal Inhibitory Concentration (MIC)
[3] = system: Prevotella amnii; assay: Agar dilution MIC (CLSI), Prevotella amnii vaginal isolates; settings: for Number of strains with indicated MIC: 33 samples; for MIC: read-out: Minimal Inhibitory Concentration (MIC)
[4] = Hoylesella timonensis, # tested 33
[5] = Peptoniphilus lacrimalis, # tested 20

CO[C@H]1/C=C/O[C@@]2(C)Oc3c(C)c(O)c4c(O)c(c5c(nc6cc(C)ccn65)c4c3C2=O)NC(=O)/C(C)=C\C=C\[C@H](C)[C@H](O)[C@@H](C)[C@@H](O)[C@@H](C)[C@H](OC(C)=O)[C@@H]1C [Rifaximin]
14: Number of strains with indicated MIC ([3]; MIC 0.03 μg/ml)
0.00375 µg/mL: MIC ([2]; Peptoniphilus lacrimalis, isolate 601388V B) | MIC ([2]; Peptoniphilus lacrimalis, isolate 601401V I)
33 (100) μg/ml: Susceptible ([1]; number (%) of isolates, # tested 33)
5: Number of strains with indicated MIC ([2]; MIC 0.0075 μg/ml)
0.015 µg/mL: MIC ([1]; Hoylesella timonensis, isolate 601422 39) | MIC ([1]; Hoylesella timonensis, isolate 601429 11) | MIC ([1]; Hoylesella timonensis, isolate 601459 21) | MIC50 [1, 4] | MIC90 [1, 4] | MIC ([2]; Peptoniphilus lacrimalis, isolate 601028V 27A) | MIC ([2]; Peptoniphilus lacrimalis, isolate 601060V 32A) | MIC ([2]; Peptoniphilus lacrimalis, isolate 601078V O) | MIC ([2]; Peptoniphilus lacrimalis, isolate 601084V c) | MIC ([2]; Peptoniphilus lacrimalis, isolate 601105V 13) | MIC ([2]; Peptoniphilus lacrimalis, isolate 601139V 17) | MIC ([2]; Peptoniphilus lacrimalis, isolate 601213V 17) | MIC ([2]; Peptoniphilus lacrimalis, isolate 601255V 12) | MIC ([2]; Peptoniphilus lacrimalis, isolate 601261V O) | MIC ([2]; Peptoniphilus lacrimalis, isolate 601296V N) | MIC ([2]; Peptoniphilus lacrimalis, isolate 601330V H) | MIC ([2]; Peptoniphilus lacrimalis, isolate 601336V 47) | MIC50 [2, 5] | MIC90 [2, 5] | MIC ([3]; Prevotella amnii, isolate 601203 4) | MIC ([3]; Prevotella amnii, isolate 601258 25) | MIC ([3]; Prevotella amnii, isolate 601261 E) | MIC ([3]; Prevotella amnii, isolate 601278 10) | MIC ([3]; Prevotella amnii, isolate 601287 HH) | MIC ([3]; Prevotella amnii, isolate 601291 41) | MIC ([3]; Prevotella amnii, isolate 601336 33) | MIC ([3]; Prevotella amnii, isolate 601340 37) | MIC ([3]; Prevotella amnii, isolate 601341 H) | MIC ([3]; Prevotella amnii, isolate 601350 A) | MIC ([3]; Prevotella amnii, isolate 601365 6) | MIC ([3]; Prevotella amnii, isolate 601368 24) | MIC ([3]; Prevotella amnii, isolate 601375 L) | MIC ([3]; Prevotella amnii, isolate 601399 10) | MIC ([3]; Prevotella amnii, isolate 601405 A) | MIC ([3]; Prevotella amnii, isolate 601413 10) | MIC ([3]; Prevotella amnii, isolate 601426 A) | MIC ([3]; Prevotella amnii, isolate 601430 14) | MIC ([3]; Prevotella amnii, isolate 601434 13) | MIC50 ([3]; Prevotella amnii, # tested 33)
12: Number of strains with indicated MIC ([2]; MIC 0.015 μg/ml)
19: Number of strains with indicated MIC ([3]; MIC 0.015 μg/ml)
2: Number of strains with indicated MIC ([1]; MIC 0.0075 μg/ml) | Number of strains with indicated MIC ([1]; MIC 0.03 μg/ml) | Number of strains with indicated MIC ([2]; MIC 0.00375 μg/ml)
1: Number of strains with indicated MIC ([1]; MIC 0.00375 μg/ml) | Number of strains with indicated MIC ([1]; MIC 0.06 μg/ml) | Number of strains with indicated MIC ([2]; MIC 0.03 μg/ml)
27: Number of strains with indicated MIC ([1]; MIC 0.015 μg/ml)
0.03 µg/mL: MIC ([1]; Hoylesella timonensis, isolate 601414 O) | MIC ([2]; Peptoniphilus lacrimalis, isolate 601293V 15) | MIC ([3]; Prevotella amnii, isolate 601256 11) | MIC ([3]; Prevotella amnii, isolate 601266 20) | MIC ([3]; Prevotella amnii, isolate 601293 29) | MIC ([3]; Prevotella amnii, isolate 601305 A) | MIC ([3]; Prevotella amnii, isolate 601311 K) | MIC ([3]; Prevotella amnii, isolate 601314 19) | MIC ([3]; Prevotella amnii, isolate 601318 G) | MIC ([3]; Prevotella amnii, isolate 601369 13) | MIC ([3]; Prevotella amnii, isolate 601377 9) | MIC ([3]; Prevotella amnii, isolate 601379 24) | MIC ([3]; Prevotella amnii, isolate 601388 G) | MIC ([3]; Prevotella amnii, isolate 601411 L) | MIC ([3]; Prevotella amnii, isolate 601418 27) | MIC ([3]; Prevotella amnii, isolate 601458 13) | MIC90 ([3]; Prevotella amnii, # tested 33)
0.015 to 0.03 µg/mL: MIC Range ([3]; # tested 33)
0.00375 to 0.03 µg/mL: MIC Range ([2]; # tested 20)
0.0075 µg/mL: MIC ([2]; Peptoniphilus lacrimalis, isolate 601305V K-1) | MIC ([2]; Peptoniphilus lacrimalis, isolate 601318V E) | MIC ([2]; Peptoniphilus lacrimalis, isolate 601365V 13) | MIC ([2]; Peptoniphilus lacrimalis, isolate 601368V 39) | MIC ([2]; Peptoniphilus lacrimalis, isolate 601375V E)
